The values that follow come from patent publication US11084847B2, “Polyamide compound and use thereof” (SICHUAN KELUN-BIOTECH BIOPHARMACEUTICAL CO., LTD., priority 2016, dated 2021).

Structures are written as SMILES.

Series [1] addresses T1, human κ-opioid receptor (KOR) (Homo sapiens, UniProt P41145).
T1 construct: expressed in transfected cells
The experiment in a line: κ-opioid receptor agonistic effect (inhibition of adenylate cyclase, cAMP assay). The class given is cell-based. Particulars: CHO cells stably expressing human KOR; NKH477-stimulated cAMP; four-parameter fit; read-out: ED50 (the source's name). As for the experimental part: The efficacy of the compounds of the invention as κ-opioid receptor agonists was determined by measuring the ability of the compounds of Examples to inhibit adenylate cyclase activity.
Cell culture: hamster ovary cells CHO stably expressing human κ-opioid receptor (KOR) gene were cultured in MEMα plus nucleosides medium (Invitrogen) containing 5% FBS.
Stimulation: the test compound was 4-fold diluted in a gradient manner to obtain 11 concentrations, and 100 nl of each was transferred to a 384-well plate, and then a stimulating solution (5 uL) containing NKH477 (Tocris) was added; the cells were digested, re-suspended, and counted; and then the cells (5 uL) were added to wells, mixed gently, and incubated at 37° C. for 30 min.
Detection: cAMP Assay Kit (Cisbio) was used, cAMP-D2 and Anti-cAMP-Cryptate were added separately, and the resultant mixture was incubated for 1 h at room temperature. The plate was read using envision (Perkin Elmer) and EC50 was obtained by means of fitting with a four-parameter equation.
Background: Changes in cAMP serve as a functional read-out for many G protein-coupled receptors.

The target in a further series is DOR (Homo sapiens, UniProt P41143). The experiment in a line: Opioid receptor selectivity, radioligand competition binding (3H-DADLE) on cell membranes. Particulars: for Ki: Ki=IC50/(1+[radioligand]/Kd), read-out: DOR Ki; for IC50: radioligand 3H-DADLE, 1 h incubation, read-out: DOR IC50. Here is the method: (§1) The selectivity of the compounds of the invention for κ opioid receptors was determined by measuring the inhibitory effect of the compounds of Examples on the […] of KOR, MOR, and DOR.
(§2) The compounds of Examples at different concentrations were incubated with the cell membrane with high expression of KOR, MOR, DOR and the corresponding radioligand (KOR: 3H-diprenophrine; MOR: 3H-DAMGO; DOR: 3H-DADLE) for 1 h, the compounds of Examples competed with the radioligands for binding to KOR, MOR, DOR. After the incubation, Cell harvest was used to collect cell membranes onto a Unifilter-96 GF/C filter plate, and the unbound radioligands were washed away. The plate was placed in a 50-degree oven for 1 h, and finally the scintillation solution Microscint 20 cocktail was added and the isotope signal was detected by MicroBeta2 Reader.
(§3) According to the intensity of the isotope signal at different concentrations, the IC50 was calculated by means of fitting with a four-parameter equation, and the Ki value was calculated.
(§4) The Ki value was calculated according to the formula Ki=IC50/(1+[radioligand]/Kd), and Kd was the equilibrium dissociation constant of radioligand.

For the next series, the target named is MOR (Homo sapiens, UniProt P35372). The experiment in a line: Opioid receptor selectivity, radioligand competition binding (3H-DAMGO) on cell membranes. Particulars: for Ki: Ki=IC50/(1+[radioligand]/Kd), read-out: MOR Ki; for IC50: radioligand 3H-DAMGO, 1 h incubation, read-out: MOR IC50. As for the experimental part: as §1, §2, §3, §4
On the technique in general: In a radioligand displacement assay an active substance lowers the binding of a labelled ligand.

The next series has as its target KOR (Homo sapiens, UniProt P41145). The experiment in a line: Opioid receptor selectivity, radioligand competition binding (3H-diprenophrine) on cell membranes. As to conditions: for Ki: Ki=IC50/(1+[radioligand]/Kd), read-out: KOR Ki; for IC50: radioligand 3H-diprenophrine, 1 h incubation, read-out: KOR IC50. Here is the method:
as §1, §2, §3, §4

The next series relates to male ICR mice. The experiment in a line: Acetic acid-induced writhing test in mice. The class given is in vivo. On the set-up: ED50: unit not given here. Particulars: iv administration 15 min before 0.6% acetic acid ip; writhes counted within 15 min. As for the experimental part: The analgesic effect of the compound of the invention was evaluated by measuring the ED50 of the compounds of Examples in the acetic acid-induced writhing test in mice.
The commercial glacial acetic acid solution was diluted with physiological saline to 0.6% glacial acetic acid solution. The male ICR mice were randomly separated into the drug group and the model group (to which physiological saline was administration). 15 minutes after iv administration, 0.6% acetic acid solution was intraperitoneally injected at 10 ml/kg, and the mice was immediately recorded with DV camera for 15 min. After the recording, the number of writhes of the mice within 15 min was counted from the video by blind method, the inhibition rate for the writhes was calculated according to Formula (I), and the ED50 of the compound was calculated according to Formula (II).
(I) The inhibition rate for the writhes was calculated by the formula: Inhibition rate (%)=(the number of writhes in a model group−the number of writhes in a drug group)/the number of writhes in a model group*100.
(II) The ED50 was calculated by the formula:
[formula] wherein Xm was the logarithm of the highest dose, d was the difference in the logarithm of two adjacent doses, p was the inhibition rate for each dose group, pm was the highest-dose inhibition rate, and pn was the lowest-dose inhibition rate.
Background: Writhing tests count abdominal constrictions after an irritant is injected.

A short description of series [2]: Pharmacokinetic (PK) study in rats. In kind it is in vivo. Particulars: male SD rats, intravenous, 1 mg/kg; for AUC(0-t) / Cmax / Vd / half-life: rat, plasma. Here is the method: The pharmacokinetic profile of the compounds of Examples was studied by intravenous administration of the compounds of Examples to male SD rats. The dose for IV administration was 1 mg/kg, and the solvent was 5% DMSO: 5% solutol: 90% physiological saline. After IV administration, blood samples were collected at different time points for PK study. Plasma were treated by protein precipitation and then analyzed by LC-MS/MS.
In LC-MS/MS, mass spectrum was API 5500, and liquid chromatography was Shimadzu LC-30AD system. The column used for the test groups of Compound 3 and Compound 4 was Thermo C18 column (4.6 mm×100 mm, 3 μm); for mobile phases, phase A was water+0.1% formic acid, and phase B was methanol; the flow rate was 0.8 mL/min, and the column temperature was 40° C. The column used for the test group of Compound 5 was Agela AQ C18 column (2.1 mm×50 mm, 1.9 μm); for mobile phases, phase A was water+0.05% formic acid+5 mM acetic acid ammonium, and phase B was methanol+0.05% formic acid; the flow rate was 0.6 mL/min, and the column temperature was 40° C. The ion source used was the ESI source in positive ion mode, and the scanning mode was Multiple Reaction Monitoring (MRM).

With `CC(C)C[C@@H](NC(=O)[C@@H](Cc1ccccc1)NC(=O)[C@H](N)Cc1ccccc1)C(=O)N[C@H](CCCCNC[C@@H](O)CO)C(=O)N1CCC(N)(C(=O)O)CC1` [Example 1, 4-amino-1-((R)-2-((R)-2-((R)-2-((R)-2-amino-3-phenylpropanamido)-3-phenylpropanamido)-4-methylpentanamido)-6-(((R)-2,3-dihydroxypropyl)amino)hexanoyl)piperidin-4-carboxylic acid], the EC50 in series [1] turned out to be 0.09 nM.
The same measure, in the same setting: under `CC(C)C[C@@H](NC(=O)[C@@H](Cc1ccccc1)NC(=O)[C@H](N)Cc1ccccc1)C(=O)N[C@H](CCCCNC[C@H](O)CO)C(=O)N1CCC(N)(C(=O)O)CC1` [Example 2, 4-amino-1-((R)-2-((R)-2-((R)-2-((R)-2-amino-3-phenylpropanamido)-3-phenylpropanamido)-4-methylpentanamido)-6-(((S)-2,3-dihydroxypropyl)amino)hexanoyl)piperidin-4-carboxylic acid] stands 0.08 nM.
Consider `CC(C)C[C@@H](NC(=O)[C@@H](Cc1ccccc1)NC(=O)[C@H](N)Cc1ccccc1)C(=O)N[C@H](CCCCNCCN)C(=O)N1CCC(N)(C(=O)O)CC1` [Example 3, 4-amino-1-((R)-2-((R)-2-((R)-2-((R)-2-amino-3-phenylpropanamido)-3-phenylpropanamido)-4-methylpentanamido)-6-((2-aminoethyl)amino)hexanoyl)piperidin-4-carboxylic acid], for which, in series [1], the EC50 was 0.06 nM. For the same compound, at DOR, the Ki is greater than 12000 nM and the IC50 was greater than 20000 nM. Also, at MOR, the Ki was greater than 7180 nM and the IC50 is greater than 20000 nM. Further, on KOR, the Ki is less than 0.01 nM and the IC50 is less than 0.03 nM. Moreover, the ED50 in the series with male ICR mice is listed as 0.041. Besides, in series [2], the “pharmacokinetic profile (in words)” value was “good exposure amount and Cmax”; the AUC(0-t) was 1790 ng·h/mL; the highest level (Cmax) was 2650 ng/mL; the Vd came out at 0.28 L/kg. Moreover, the half-life in series [2] was 20.4 min.
For `CC(C)C[C@@H](NC(=O)[C@@H](Cc1ccccc1)NC(=O)[C@H](N)Cc1ccccc1)C(=O)N[C@H](CCCCNCCCN)C(=O)N1CCC(N)(C(=O)O)CC1` [Example 4, 4-amino-1-((R)-2-((R)-2-((R)-2-((R)-2-amino-3-phenylpropanamido)-3-phenylpropanamido)-4-methylpentanamido)-6-((3-aminopropyl)amino)hexanoyl)piperidin-4-carboxylic acid], in series [1], the EC50 stood at 0.07 nM. Further, on DOR, the Ki is greater than 12000 nM and the IC50 was greater than 20000 nM. Also, at MOR, the Ki is greater than 7180 nM and the IC50 is greater than 20000 nM. Also, on KOR, the Ki is less than 0.01 nM and the IC50 was less than 0.03 nM. The compound also showed an ED50 with male ICR mice of 0.029. For the same compound, in series [2], the “pharmacokinetic profile (in words)” value was “good exposure amount and Cmax”; the AUC(0-t) turned out to be 2410 ng·h/mL; the Cmax came out at 3590 ng/mL; the Vd turned out to be 0.74 L/kg. The compound further gave a half-life in series [2] of 73.2 min.
For the compound `CC(C)C[C@@H](NC(=O)[C@@H](Cc1ccccc1)NC(=O)[C@H](N)Cc1ccccc1)C(=O)N[C@H](CCCCNC(CO)CO)C(=O)N1CCC(N)(C(=O)O)CC1` [Example 8, 4-amino-1-((R)-2-((R)-2-((R)-2-((R)-2-amino-3-phenylpropanamido)-3-phenylpropanamido)-4-methylpentanamido)-6-((1,3-dihydroxypropan-2-yl)amino)hexanoyl)piperidin-4-carboxylic acid], the EC50 in series [1] was determined as 0.03 nM.
In the case of `COCCOCCN(CCCC[C@@H](NC(=O)[C@@H](CC(C)C)NC(=O)[C@@H](Cc1ccccc1)NC(=O)[C@H](N)Cc1ccccc1)C(=O)N1CCC(N)(C(=O)O)CC1)CCOCCOC` [Example 15, 4-amino-1-((R)-2-((R)-2-((R)-2-((R)-2-amino-3-phenylpropanamido)-3-phenylpropanamido)-4-methylpentanamido)-6-(di(2-(2-methoxyethoxy)ethyl)amino)hexanoyl)piperidin-4-carboxylic acid], the EC50 in series [1] came out at 0.06 nM.
Same read-out and setting: with `CC(C)C[C@@H](NC(=O)[C@@H](Cc1ccccc1)NC(=O)[C@H](N)Cc1ccccc1)C(=O)N[C@H](CCCCNCC(=O)O)C(=O)N1CCC(N)(C(=O)O)CC1` [Example 17, 4-amino-1-((R)-2-((R)-2-((R)-2-((R)-2-amino-3-phenylpropanamido)-3-phenylpropanamido)-4-methylpentanamido)-6-((carboxymethyl)amino)hexanoyl)piperidin-4-carboxylic acid] the figure was 0.42 nM; with `COCCOCCNCCCC[C@@H](NC(=O)[C@@H](CC(C)C)NC(=O)[C@@H](Cc1ccccc1)NC(=O)[C@H](N)Cc1ccccc1)C(=O)N1CCC2(CC1)NC(=O)NC2=O` [Example 23, 8-((R)-2-((R)-2-((R)-2-((R)-2-amino-3-phenylpropanamido)-3-phenylpropanamido)-4-methylpentanamido)-6-(2-(methoxyethoxy)ethylamino)hexanoyl)-1,3,8-triaza-spiro[4.5]decane-2,4-dione], 0.016 nM; with `COCCOCCNCCCC[C@@H](NC(=O)[C@@H](CC(C)C)NC(=O)[C@@H](Cc1ccccc1)NC(=O)[C@H](N)Cc1ccccc1)C(=O)N1C2CC1CN(CC(=O)O)C2` [Example 24, 2-(6-((R)-2-((R)-2-((R)-2-((R)-2-amino-3-phenylpropanamido)-3-phenylpropanamido)-4-methylpentanamido)-6-((2-(2-methoxyethoxy)ethyl)amino)hexanoyl)-3,6-diazabicyclo[3.1.1]heptan-3-yl)acetic acid], 0.005 nM.

The term Ki denotes the dissociation constant of the complex between target and ligand, obtained from inhibition or displacement. The term IC50 denotes the point on the concentration scale where inhibition reaches its midpoint. In general, AUC(0-t) refers to exposure summed from dosing to a finite time, without extrapolation to infinity. As a reminder, the Cmax is the maximum level reached in the sampled fluid or tissue. As a reminder, the Vd is a proportionality between amount in the body and measured concentration, not a real space. The term half-life denotes the time needed for the level to fall by half in the phase considered.
